EP0471756B1, “SACCHARIN DERIVATIVES USEFUL AS PROTEOLYTIC ENZYME INHIBITORS AND PREPARATION THEREOF” (priority 1989, dated 1990)

What was measured:
α-Chymotrypsin = α-Chymotrypsin (Bos taurus, UniProt P00766); test: Inactivation of α-chymotrypsin: kon measured, Ki* = koff/kon calculated; format: biochemical; conditions: rate of inactivation kon = kobs/[I], value is kon x 10^-3
Method: (§1) Thus, instead of measuring a Ki, a Ki* is calculated which is defined as the ratio of the koff/kon, the rate of reactivation of the enzyme to the rate of inactivation of the enzyme. The values of koff and kon are measured and Ki* is then calculated.
(§2) The rate of inactivation, kon, of enzymatic activity was determined for the compounds tested by measuring the enzyme activity of an aliquot of the respective enzyme as a function of time after addition of the test compound. […] The rate of inactivation is then equal to kon =(kobs)/([I]) [formula] where [I] is the concentration of the inhibiting compound.
(§3) The reactivation constant, koff, is similarly determined and the inhibition constant, Ki*, is then calculated as Ki * = koff /kon [formula]

[1] = biological target: T1, human leukocyte elastase (HLE) (Homo sapiens, UniProt P08246); test: Inactivation of human leukocyte elastase: kon measured, Ki* = koff/kon calculated; format: biochemical; conditions: Elastase; for kinact/KI: read-out: 10^-3 x kon; for Ki: Ki* = koff/kon, not a truly reversible inhibition constant
T1 sequence (P08246 30-267): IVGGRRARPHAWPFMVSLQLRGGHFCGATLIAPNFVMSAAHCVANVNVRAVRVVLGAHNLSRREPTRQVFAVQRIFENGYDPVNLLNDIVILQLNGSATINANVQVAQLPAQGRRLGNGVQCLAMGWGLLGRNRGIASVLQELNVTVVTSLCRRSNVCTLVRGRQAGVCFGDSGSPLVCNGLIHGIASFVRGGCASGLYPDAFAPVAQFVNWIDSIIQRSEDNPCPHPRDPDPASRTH
Method: as §1, §2, §3

[2] = rate of inactivation kon = kobs/[I], value is kon x 10^-3

Compound | kinact/KI [1, 2] [M⁻¹ s⁻¹] | also measured
O=C1c2ccccc2S(=O)(=O)N1CS(=O)(=O)c1ccccc1 [Example 12, 2-(phenylsulfonylmethyl)saccharin] | 970 | kinact/KI (α-Chymotrypsin): 1100 M⁻¹ s⁻¹
O=C1c2c(Cl)cccc2S(=O)(=O)N1Cn1nnn(-c2ccccc2)c1=S [Example 5, 4-chloro-2-(4-phenyl-5-thioxotetrazolin-1-ylmethyl)saccharin] | 44000 | kinact/KI (α-Chymotrypsin): 6000 M⁻¹ s⁻¹
Cn1nnnc1SCN1C(=O)c2ccccc2S1(=O)=O [Example 8, 2-(1-methyl-1H-tetrazol-5-ylthiomethyl)saccharin] | 1000 | kinact/KI (α-Chymotrypsin): 2100 M⁻¹ s⁻¹; Ki [1]: 81 nM
CC(=O)OCN1C(=O)c2c(C)cccc2S1(=O)=O [Example 1, 2-acetoxymethyl-4-methylsaccharin] | 630 | kinact/KI (α-Chymotrypsin): 1200 M⁻¹ s⁻¹
O=C1c2ccccc2S(=O)(=O)N1C[S+]([O-])c1ncccn1 (centres unmarked) [Example 13, 2-(2-pyrimidylsulfinylmethyl)saccharin] | 300 | kinact/KI (α-Chymotrypsin): 2600 M⁻¹ s⁻¹
O=C1c2c(Cl)cccc2S(=O)(=O)N1CCl [Example 3, 2-chloromethyl-4-chlorosaccharin] | 450000 | kinact/KI (α-Chymotrypsin): 5800 M⁻¹ s⁻¹
O=C1c2ccccc2S(=O)(=O)N1C[S+]([O-])c1nnnn1-c1ccccc1 (centres unmarked) [Example 10, 2-(1-phenyl-1H-tetrazol-5-ylsulfinylmethyl)saccharin] | 7000 | kinact/KI (α-Chymotrypsin): 7000 M⁻¹ s⁻¹
O=C1c2c(-c3ccccc3)cccc2S(=O)(=O)N1CSc1nnnn1-c1ccccc1 [Example 30BC] | 5800 | Ki [1]: 80 nM
O=C1c2ccccc2C(=O)N1CN1C(=O)c2ccccc2S1(=O)=O [Example 30BF] |  | 10^-3 x kon [1, 2]: 0.02 M^-1 sec^-1
O=C1c2ccccc2S(=O)(=O)N1CSc1nnc(S)s1 [Example 30AH, 2-(5-mercapto-1,3,4-thiadiazol-2-ylthiomethyl)saccharin] | 1100 | 
CCC(C)c1cccc2c1C(=O)N(CCl)S2(=O)=O (centres unmarked) [Example 22B, 2-chloromethyl-4-sec.-butylsaccharin] | 2400 | 
CC(C)c1cccc2c1C(=O)N(CCl)S2(=O)=O [Example 22E] | 4700 | 
O=C1c2ccccc2S(=O)(=O)N1CSc1nnnn1CCO [Example 30AQ, 2-[1-(2-hydroxyethyl)-1H-tetrazol-5-ylthiomethyl]saccharin] | 900 | 
COC(=O)c1cccc2c1C(=O)N(CCl)S2(=O)=O [Example 22G] | 3000 | 
CCOc1cccc2c1C(=O)N(CCl)S2(=O)=O [Example 22H] | 25000 | 
O=C(O)Cn1nnnc1SCN1C(=O)c2ccccc2S1(=O)=O [Example 34, 2-[1-(2-carboxymethyl)-1H-tetrazol-5-ylthiomethyl]saccharin] | 400 | 
CC(=O)Nc1cccc(-n2nnnc2SCN2C(=O)c3ccccc3S2(=O)=O)c1 [Example 6, 2-[1-(3-acetamidophenyl)-1H-tetrazol-5-ylthiomethyl]saccharin] | 5500 | kinact/KI (α-Chymotrypsin): 3700 M⁻¹ s⁻¹
O=C1c2ccccc2S(=O)(=O)N1CSc1nncn1-c1ccccc1 [Example 30I] | 450 | 
CCOc1ccc(OCCOCCOC)c2c1C(=O)N(CSc1nnnn1-c1ccccc1)S2(=O)=O [Example 30L] | 6500 | 
CC(C)c1cccc2c1C(=O)N(Cn1nnn(-c3cccnc3)c1=S)S2(=O)=O [Example 30Z] | 70000 | 
Cc1nnc(SCN2C(=O)c3c(C(C)C)cccc3S2(=O)=O)s1 [Example 30AM] | 12300 | 
CC(=O)OCN1C(=O)c2c(Cl)cccc2S1(=O)=O [Example 2, 2-acetoxymethyl-4-chlorosaccharin] | 4900 | kinact/KI (α-Chymotrypsin): 2900 M⁻¹ s⁻¹
O=C1c2ccccc2S(=O)(=O)N1/C=C/CSc1nnnn1-c1ccccc1 [Example 38, trans-2-[3-(1-phenyl-1H-tetrazol-5-ylthio)-1-propenyl]saccharin] | 43000 | 
CSc1nn(CN2C(=O)c3ccccc3S2(=O)=O)c(=S)s1 [Example 30AD] | 7000 | 
O=C1c2c(-c3ccccc3)cccc2S(=O)(=O)N1CCl [Example 18, 2-chloromethyl-4-phenylsaccharin] | 1000 | kinact/KI (α-Chymotrypsin): 210 M⁻¹ s⁻¹
O=C1c2ccccc2S(=O)(=O)N1COc1c(Cl)cccc1Cl [Example 30BB] |  | Ki [1]: > 500 nM

Compound | kinact/KI [1, 2] [M⁻¹ s⁻¹] | also measured
CN(C)C(=O)Cn1nnnc1SCN1C(=O)c2ccccc2S1(=O)=O [Example 30AS] | 1700 | 
CCCCCCC(=O)Nc1cccc(-n2nnnc2SCN2C(=O)c3ccccc3S2(=O)=O)c1 [Example 7, 2-[1-(3-heptanamidophenyl)-1H-tetrazol-5-ylthiomethyl]saccharin] | 5200 | 
COc1cccc2c1C(=O)N(CCl)S2(=O)=O [Example 22A, 2-chloromethyl-4-methoxysaccharin] | 12400 | 
CC(C)c1cccc2c1C(=O)N(Cn1nnn(-c3ccccc3)c1=S)S2(=O)=O [Example 30AJ] | 1800 | 
CN(C)CCSc1nnc(SCN2C(=O)c3ccccc3S2(=O)=O)s1 [Example 33B, 2-(5-[2-(N,N-dimethylamino)ethylthio]-1,3,4-thiadiazol-2-ylthiomethyl)saccharin] | 4000 | 
O=C1c2cccc(Cl)c2S(=O)(=O)N1CCl [Example 22D] | 75800 | 
O=C1c2ccccc2S(=O)(=O)N1CSc1nnc2ccccn12 [Example 30N] | 250 | 
Nc1cccc(-n2nnnc2SCN2C(=O)c3ccccc3S2(=O)=O)c1 [Example 30C, 2-[1-(3-aminophenyl)-1H-tetrazol-5-ylthiomethyl]saccharin] | 2500 | 
O=C1c2ccc([N+](=O)[O-])cc2S(=O)(=O)N1CSc1nnnn1-c1ccccc1 [Example 31C] | 3400 | 
CC(C)c1cccc2c1C(=O)N(CSc1nnnn1CC(=O)N(C)C)S2(=O)=O [Example 30AW] | 30000 | 
O=C(O)c1cccc(-n2nnn(CN3C(=O)c4ccccc4S3(=O)=O)c2=S)c1 [Example 30-O] | 30 | 
Cc1ccc(C)c2c1C(=O)N(CCl)S2(=O)=O [Example 29, 2-chloromethyl-4,7-dimethylsaccharin] | 1100 | 
COC(=O)c1cn(-c2ccccc2)c(SCN2C(=O)c3ccccc3S2(=O)=O)n1 [Example 30AR] | 300 | 
Cc1nnc(SCN2C(=O)c3ccccc3S2(=O)=O)s1 [Example 30AB] | 2800 | 
O=C1c2c(Cl)cccc2S(=O)(=O)N1CSc1nnnn1-c1ccccc1 [Example 4, 4-chloro-2-(1-phenyl-1H-tetrazol-5-ylthiomethyl) saccharin] | 20000 | 
CC(=O)Nc1ccc2c(c1)C(=O)N(CSc1nnnn1-c1ccccc1)S2(=O)=O [Example 37, 5-acetylamino-2-(1-phenyl-1H-tetrazol-5-ylthiomethyl)saccharin] |  | Ki [1]: > 90000 nM
CC(C)c1cccc2c1C(=O)N(CSc1nnnn1C)S2(=O)=O [Example 30AN] | 19000 | 
O=C1c2ccccc2S(=O)(=O)N1CSc1nnnn1-c1cccnc1 [Example 30Q] | 1380 | 
COCCOCCOc1ccc(OC)c2c1S(=O)(=O)N(CSc1nnnn1-c1ccccc1)C2=O [Example 30M] | 1000 | 
O=C1c2ccccc2S(=O)(=O)N1CS(=O)(=O)c1ncccn1 [Example 14, 2-(2-pyrimidylsulfonylmethyl)saccharin] | 600 | kinact/KI (α-Chymotrypsin): 2800 M⁻¹ s⁻¹
O=C1c2ccccc2S(=O)(=O)N1CSc1nnnn1C1CCCCC1 [Example 9, 2-(1-cyclohexyl-1H-tetrazol-5-ylthiomethyl)saccharin] | 2500 | Ki [1]: 32 nM
O=C1c2ccccc2S(=O)(=O)N1CSc1ncccn1 [Example 30F, 2-(2-pyrimidylthiomethyl)saccharin] |  | Ki [1]: > 85000 nM
O=C1c2ccccc2S(=O)(=O)N1CS(=O)(=O)c1c(Cl)cccc1Cl [Example 32A, 2-(2,6-dichlorophenylsulfonylmethyl)saccharin] | 600 | 
Cn1nnc(SCN2C(=O)c3ccccc3S2(=O)=O)n1 [Example 30X] | 550 | 
CCOc1cccc2c1C(=O)N(CSc1nnnn1CC(=O)N(C)C)S2(=O)=O [Example 30AX] | 7500 | 
